Data: patent US20250064846A1, “TREATMENT AND PREVENTION OF TRIGEMINAL NEURALGIA” (THE JOHNS HOPKINS UNIVERSITY, priority 2022, published 2025)

Legend:
maxillary nerves = experiment: Myelin basic protein (MBP) immunostaining of maxillary nerves; type: in vivo, mouse; settings: ten days post-surgery; sulforaphane 10, exemestane 10, JQ-1 40 mg/kg, i.p. daily; vs vehicle-treated ligated nerves
Description: Histology Maxillary nerves from mice were dissected and fixed in cold 4% formaldehyde (v/v) overnight at 4° C. Tissues were then cryoprotected through a series of 10%, 20%, and 30% sucrose (w/v) gradients for 24 hrs each at 4° C. Tissues were then embedded in Optimal Cutting Temperature compound (OCT) and sectioned in 20 μm intervals with a cryostat, after which the sections were dried onto slides and kept at […]. Sections were then processed for immunohistochemistry.
Immunohistochemistry was performed as previously described (Vasavda C et al., Cell Chem Biol 2019; 26(10):1450-1460.e7, incorporated herein by reference in its entirety). Briefly, sections were post-fixed with 4% parafomaldehyde for 15 min at 25° C. and then permeabilized with 100% methanol for 7 min at −20° C. The slides were then pre-incubated in blocking solution (10% normal goat serum (ThermoFisher Scientific)) for 30 min at 25° C. Sections were incubated overnight at 4° C. with the appropriate primary antibodies in blocking solution. Sections were washed and incubated with the appropriate secondary antibodies diluted 1:250 in blocking solution for 1 h at 25° C. Tissues were then mounted with ProLong Gold Antifade Mountant with DAPI (Invitrogen).
MBP immunostaining: Mice were first dosed daily with either sulforaphane (10 mg/kg, i.p.), exemestane (10 mg/kg, i.p.), JQ-1 (40 mg/kg, i.p.), or the appropriate vehicle for two days before surgical ligation of the maxillary nerve, after which they were dosed every 24 h for 10 days thereafter. MBP immunostaining was performed ten days post-surgery. MBP stains were interpreted by a pathologist to morphologically assess the degree of damage from nerve injury and response to drug treatment. Antibodies: primary antibodies: chicken anti-MBP (1:500); secondary antibodies: goat anti-chicken (Alexa 488, A32931 Invitrogen).

TRPA1 = experiment: Western blot for TRPA1 from maxillary nerves; type: in vivo, mouse; settings: normalized to β-actin; vs vehicle
Source text: FIGS. 15A-15H are western blots for TRPA1 (FIGS. 15A, 15C, 15E, and 15G) and graphs of relative TRPA1 expression (FIGS. 15B, 15D, 15F and 15H) from maxillary nerves of mice following constriction compared to sham surgery (FIG. 15A-15B) or treatment with sulforaphane (FIG. 15C-15D), exemestane (FIG. 15E-15F), or JQ-1 (FIG. 15G-15H), normalized to β-actin. Lanes and points represent individual mice. Median and range depicted in graphs of relative TRPA1 expression. ns=P>0.05 by two-tailed unpaired Student's t-test.
Western Blotting Western blotting was performed as previously described (See Vasavda, C. et al. Cell Chem Biol 26, 1450-1460.e7 (2019)). Briefly, tissues were homogenized at 4° C. in lysis buffer (pH 7.4 solution of 50 mM Tris-HCl, 150 mM NaCl, 0.1% SDS, 0.5% sodium deoxycholate, and 1% Triton X-100) supplemented with protease inhibitors (Sigma). When dissecting maxillary nerves for immunoblot analysis, nerves were as dissected both as proximally towards the semilunar ganglion and as distal to the skin as possible. Nerves were harvested 11 days after surgery, immediately after the final behavioral test. Lysates were then pulse sonicated and centrifuged at 16,000 g for 10 min at 4° C. Fifteen micrograms of cleared lysate were run on a 4-12% polyacrylamide Bis-Tris gradient gel in running buffer (pH 7.3 solution of 50 mM MES, 50 mM Tris Base, 0.1% SDS, 1 mM EDTA) and then transferred to a PVDF membrane. Membranes were blocked with 5% milk in TBS-T (pH 7.6 solution of 16 mM Tris-HCl, 140 mM NaCl, 0.1% Tween-20) for 1 hr at 25° C. and then incubated with primary antibodies in 3% bovine serum albumin (BSA) (w/v) in TBS-T overnight at 4° C. The following day, membranes were washed with TBS-T, and then incubated with secondary antibodies in 3% BSA (w/v) in TBS-T for 1 hr at 25° C. The following primary antibodies were used: rabbit anti-4-HNE (Abeam ab46545; 1:1.000), rabbit anti-TRPA1 (Novus Biologicals NB110-40763; 1:1,000), rabbit anti-DNP (Millipore Sigma 90451; 1:150), and mouse anti-β-actin (Santa Cruz Biotech sc-47778 HRP; 1:10,000). […]

[1] = tested on: constrictive mouse model of trigeminal neuralgia; experiment: Mechanical allodynia (Von Frey filament) after constriction of the maxillary nerve; type: in vivo; settings: i.p. daily, sulforaphane 10 mg/kg; for mechanical allodynia (analgesic effect): NRF2−/− mice, exemestane 10 mg/kg, JQ-1 40 mg/kg

Compound	nerve architecture by myelin basic protein staining (maxillary nerves)	TRPA1 expression in maxillary nerves (TRPA1)	mechanical allodynia (analgesic effect) [1]	mechanical allodynia ([1]; TRPA1−/− mice, compared with genetic deletion of TRPA1 alone)
C[S+]([O-])CCCCN=C=S (stereo not shown) [sulforaphane, 1-isothiocyanato-4-(methanesulfinyl)butane]	more normal architecture with myelinated axons of varying sizes	did not affect TRPA1 expression	lose their analgesic effects	did not lower
C=C1C[C@@H]2[C@H](CC[C@]3(C)C(=O)CC[C@@H]23)[C@@]2(C)C=CC(=O)C=C12 [exemestane, 6-methylenandrosta-1,4-diene-3,17-dione]	better preserved nerve architecture with increased density of myelinated axons of varying sizes	did not affect TRPA1 expression	lose their analgesic effects	
Cc1sc2c(c1C)C(c1ccc(Cl)cc1)=N[C@@H](CC(=O)OC(C)(C)C)c1nnc(C)n1-2 [JQ-1, (S)-tert-butyl 2-(4-(4-chlorophenyl)-2,3,9-trimethyl-6H-thieno[3,2-f][1,2,4]triazolo[4,3-a][1,4]diazepin-6-yl)acetate]	better preserved nerve architecture with increased density of myelinated axons of varying sizes	did not affect TRPA1 expression	lowers	
